From article PMC9178925 (Biochemical pharmacology, 2022)
Several values for one entry are separate records, joined by “and”; a condition that tells them apart may be missing. Equal entries are not always repeated.

Experiments:
[1] = tested on: β2/3-containing GABAARs vs β1-containing GABAARs; assay: GABAAR subtype selectivity of potentiation; assay type: cell-based; conditions: low, subsaturating GABA
α1β2(N265S)γ2S GABAAR = α1β2(N265S)γ2S GABAAR (Rattus norvegicus, UniProt P62813+P63138, N289S); assay: Two-electrode voltage clamp, potentiation of low GABA currents in oocytes; assay type: cell-based, rat (β2 rat or human); conditions: 100 μM (+)-catharanthine, ~EC5 GABA
α1β2(N265S)γ2L GABAAR = α1β2(N265S)γ2L GABAAR (Rattus norvegicus, UniProt P62813+P63138, N289S); assay type: cell-based, rat (β2 rat or human); conditions: β2(N265S)
α1(Q241L)β2γ2L GABAAR = α1(Q241L)β2γ2L GABAAR (Rattus norvegicus, UniProt P62813+P63138, Q268L); assay: Two-electrode voltage clamp, potentiation of low GABA currents in oocytes; assay type: cell-based, rat (β2 rat or human); conditions: 30 μM (+)-catharanthine, 30 μM GABA, n = 6 oocytes
α1β2γ2L GABAAR [2] = target: T1, α1β2γ2L GABAAR (Rattus norvegicus, UniProt P62813+P63138); assay: Functional competition assay; conditions: for potentiation of GABA-activated receptors: n = 5 oocytes
α2β1γ2S GABAAR = α2β1γ2S GABAAR (UniProt P15431+P47869); assay type: cell-based, human α2, rat β1 and γ2S; conditions: 100 μM (+)-catharanthine, % over control EC5 GABA; mean ± SEM
α1β2(D282A)γ2L GABAAR = α1β2(D282A)γ2L GABAAR (Rattus norvegicus, UniProt P62813+P63138, D306A); assay type: cell-based, rat (β2 rat or human); conditions: β2(D282A)
α1β2γ2S GABAAR = α1β2γ2S GABAAR (Rattus norvegicus, UniProt P62813+P63138); assay type: cell-based, rat (β2 rat or human)
α1β1γ2S GABAAR = α1β1γ2S GABAAR (Rattus norvegicus, UniProt P15431+P62813); assay type: cell-based; conditions: 100 μM (+)-catharanthine, % over control EC5 GABA; mean ± SEM
α2β3γ2S GABAAR [3] = target: α2β3γ2S GABAAR (UniProt P47869+P63079); assay: Two-electrode voltage clamp, potentiation of EC5 GABA currents in oocytes; assay type: cell-based, human α2, rat β3 and γ2S
α1β3(M286C)γ2S GABAAR = α1β3(M286C)γ2S GABAAR (Rattus norvegicus, UniProt P62813+P63079, M311C); assay: Two-electrode voltage clamp, potentiation of low GABA currents in oocytes; assay type: cell-based; conditions: 100 μM (+)-catharanthine, ~EC5 GABA, n = 5 oocytes
α1β2γ2L GABAAR [4] = target: T1, α1β2γ2L GABAAR; assay: Two-electrode voltage clamp, concentration-response and mechanistic; assay type: cell-based, rat (β2 rat or human)
α2β3γ2S GABAAR [5] = assay: Two-electrode voltage clamp, potentiation of EC5 GABA currents in oocytes; assay type: cell-based, human α2, rat β and γ2S
α1β2(R269A)γ2L GABAAR = α1β2(R269A)γ2L GABAAR (Rattus norvegicus, UniProt P62813+P63138, R293A); assay type: cell-based, rat (β2 rat or human); conditions: β2(R269A)
α1β2(K279A)γ2L GABAAR = α1β2(K279A)γ2L GABAAR (Rattus norvegicus, UniProt P62813+P63138, K303A); assay type: cell-based, rat (β2 rat or human); conditions: β2(K279A)
α1β3γ2S GABAAR = α1β3γ2S GABAAR (Rattus norvegicus, UniProt P62813+P63079); assay type: cell-based
[6] = target: α1β2(K279A+D282A)γ2L GABAAR (Rattus norvegicus, UniProt P62813+P63138, D306A/K303A); assay type: cell-based, rat (β2 rat or human); conditions: β2(K279A+D282A)
[7] = read-out: KCath (estimated affinity of (+)-catharanthine for the resting receptor), low GABA (PA ~0.2), Eq. 1, NCath = 2, mean ± SEM, 5 oocytes
[8] = calculated from cCath, NCath = 2
[9] = low GABA (PA ~0.2), Eq. 1, NCath = 2
[10] = 1 μM R(+)-etomidate + 10 μM (+)-catharanthine
[11] = GABA + 3 μM loreclezole + 30 μM (+)-catharanthine
[12] = 100 μM (+)-catharanthine, % over control EC5 GABA, mean ± SEM
[13] = absence of GABA, Hill equation fit

For `CCC1=C[C@@H]2CN3CCc4c([nH]c5ccccc45)[C@@](C(=O)OC)(C2)[C@@H]13` [(+)-catharanthine, (+)-3,4-didehydrocoronaridine], the “efficacy of potentiation at β2/3-containing relative to β1-containing GABAARs” value [1] was 2.4–3.5 times, the “potentiation of the response to low GABA” value (α1β2(N265S)γ2S GABAAR) was 224 ± 13% and the Kd (α1β2(N265S)γ2L GABAAR; [7]) was 23.9 ± 2.5 µM. The ΔG (α1β2(N265S)γ2L GABAAR; [8]) was -1.12 ± 0.07 kcal/mol, the “cCath (ratio of the affinities for the active and resting states)” value (α1β2(N265S)γ2L GABAAR; [9]) was 0.390±0.021 and the EC50 (α1β2(N265S)γ2L GABAAR; low GABA, Hill equation fit) was 17.7 ± 1.4 µM. For the same molecule, the nH (α1β2(N265S)γ2L GABAAR; low GABA, Hill equation fit) was 1.53±0.13, the “potentiation of GABA-evoked currents” value (α1(Q241L)β2γ2L GABAAR) was 231 ± 33% and the “predicted PA, model with overlapping sites (Eq. 2)” value (α1β2γ2L GABAAR [2]; [10]) was 0.024 ± 0.006. The “predicted PA, model with unique non-overlapping sites (Eq. 1)” value (α1β2γ2L GABAAR [2]; [10]) was 0.115 ± 0.031, the “PA of peak response, observed” value (α1β2γ2L GABAAR [2]; 10 μM (+)-catharanthine coapplied with 1 μM R(+)-etomidate, 7 oocytes) was 0.086 ± 0.024 and the “potentiation of GABA-activated receptors” value (α1β2γ2L GABAAR [2]; 10 μM (+)-catharanthine, 0.05 μM GABA) was 1600 ± 400%. For the same molecule, the “potentiation of the peak response elicited by R(+)-etomidate” value (α1β2γ2L GABAAR [2]; 10 μM (+)-catharanthine, 1 μM R(+)-etomidate, n = 7 oocytes) was 160 ± 24%, the “potentiation of the peak response to pregnanolone” value (α1β2γ2L GABAAR [2]; 10 μM (+)-catharanthine, 2 μM pregnanolone, five oocytes) was 2200 ± 400% and the “potentiation of GABA-activated receptors” value (α1β2γ2L GABAAR [2]; 10 μM (+)-catharanthine, 1–2 μM GABA) was 353 ± 68%. The “PA of the peak response, observed” value (α1β2γ2L GABAAR [2]; 0.2–0.5 μM GABA + 3 μM loreclezole + 30 μM (+)-catharanthine) was 0.21 ± 0.13, the “PA of the peak response” value (α1β2γ2L GABAAR [2]; 0.2–0.5 μM GABA + 30 μM (+)-catharanthine) was 0.16 ± 0.11 and the “predicted PA, distinct site model” value (α1β2γ2L GABAAR [2]; [11]) was 0.62 ± 0.17. The “predicted PA, same site model” value (α1β2γ2L GABAAR [2]; [11]) was 0.19 ± 0.11, the “(+)-Catharanthine maximal potentiation (%)” value (α2β1γ2S GABAAR) was 211 ± 26 (5) % and the Kd (α1β2(D282A)γ2L GABAAR; [7]) was 7.1 ± 2.8 µM. For the same molecule, the ΔG (α1β2(D282A)γ2L GABAAR; [8]) was -0.55 ± 0.07 kcal/mol, the “cCath (ratio of the affinities for the active and resting states)” value (α1β2(D282A)γ2L GABAAR; [9]) was 0.630±0.039 and the EC50 (α1β2(D282A)γ2L GABAAR; low GABA, Hill equation fit) was 7.7 ± 1.6 µM. For the same molecule, the nH (α1β2(D282A)γ2L GABAAR; low GABA, Hill equation fit) was 1.88±0.39, the “(+)-Catharanthine maximal potentiation (%)” value (α1β2γ2S GABAAR; [12]) was 739 ± 110 (11) % and the “potentiation of the response to low GABA” value (α1β2γ2S GABAAR; 100 μM (+)-catharanthine, ~EC5 GABA) was 1099 ± 163%. For the same molecule, the “(+)-Catharanthine relative potentiation (αxβ2/3γ2S)/(αxβ1γ2S)” value (“(+)-Catharanthine relative potentiation” for short) (α1β2γ2S GABAAR; α1β2γ2S vs α1β1γ2S, 100 μM) was 2.7, the “(+)-Catharanthine maximal potentiation (%)” value (α1β1γ2S GABAAR) was 269 ± 42 (4) % and the “(+)-Catharanthine maximal potentiation (%)” value (α2β3γ2S GABAAR [3]; 100 μM (+)-catharanthine, % over control EC5 GABA, second line printed α2β3γ2S) was 728 ± 120 (4) %. The “(+)-Catharanthine relative potentiation” value (α2β3γ2S GABAAR [3]; second line printed α2β3γ2S vs α2β1γ2S, 100 μM) was 3.5, the “potentiation of the response to low GABA” value (α1β3(M286C)γ2S GABAAR) was 651 ± 115% and the “maximal efficacy [(PAmax/PAmin)-1 × 100] / maximum potentiation” value (α1β2γ2L GABAAR [4]; 2 μM GABA, Hill equation fit, % of control) was 341%. The “potentiation of GABA-evoked currents” value (α1β2γ2L GABAAR [4]; 30 μM (+)-catharanthine, 2 μM GABA, n = 6 oocytes) was 372 ± 72%, the EC50 (α1β2γ2L GABAAR [4]; read-out: EC50 for potentiation, wild-type, 2 μM GABA, Hill equation fit) was 13.5 ± 1.8 µM and the Kd (α1β2γ2L GABAAR [4]; read-out: KCath (estimated affinity of (+)-catharanthine for the resting receptor), wild-type, 2 μM GABA background, fit to Eq. 1, NCath constrained to 2, mean ± SEM, 5 oocytes) was 29.4 ± 6 µM. For the same molecule, the “cCath (ratio of the affinities for the active and resting states)” value (α1β2γ2L GABAAR [4]; wild-type, 2 μM GABA background, fit to Eq. 1, NCath constrained to 2) was 0.231 and 0.231±0.023, the “nH (Hill coefficient)” value (α1β2γ2L GABAAR [4]; wild-type, 2 μM GABA, Hill equation fit) was 1.66 and 1.66±0.33 and the “ΔG (free energy change to stabilize the active state)” value (α1β2γ2L GABAAR [4]; wild-type, calculated from cCath as NCathRTln(cCath), NCath = 2) was -1.76 kcal/mol and -1.76 ± 0.12 kcal/mol. The “(+)-Catharanthine maximal potentiation (%)” value (α2β3γ2S GABAAR [5]; 100 μM (+)-catharanthine, % over control EC5 GABA, first line printed α2β3γ2S) was 691 ± 65 (5) %, the “(+)-Catharanthine relative potentiation” value (α2β3γ2S GABAAR [5]; first line printed α2β3γ2S vs α2β1γ2S, 100 μM) was 3.3 and the Kd (α1β2(R269A)γ2L GABAAR; [7]) was 18.8 ± 3.3 µM. For the same molecule, the ΔG (α1β2(R269A)γ2L GABAAR; [8]) was -1.53 ± 0.11 kcal/mol, the “cCath (ratio of the affinities for the active and resting states)” value (α1β2(R269A)γ2L GABAAR; [9]) was 0.279±0.022 and the EC50 (α1β2(R269A)γ2L GABAAR; low GABA, Hill equation fit) was 9.3 ± 1.2 µM. For the same molecule, the nH (α1β2(R269A)γ2L GABAAR; low GABA, Hill equation fit) was 1.29±0.10, the Kd (α1β2(K279A)γ2L GABAAR; read-out: KCath (estimated affinity of (+)-catharanthine for the resting receptor), direct activation in the absence of GABA (PA,constitutive 0.22), Eq. 1, NCath = 2, 5 oocytes) was 17.8 ± 1.6 µM and the “cCath (ratio of the affinities for the active and resting states)” value (α1β2(K279A)γ2L GABAAR; absence of GABA, Eq. 1, NCath = 2) was 0.421±0.034. It also gave an EC50 (α1β2(K279A)γ2L GABAAR; [13]) of 13.6 ± 2 µM, a nH (α1β2(K279A)γ2L GABAAR; [13]) of 1.08±0.11 and a ΔG (α1β2(K279A)γ2L GABAAR; [8]) of -1.04 ± 0.10 kcal/mol. The “(+)-Catharanthine maximal potentiation (%)” value (α1β3γ2S GABAAR; [12]) was 646 ± 64 (10) %, the “potentiation of the response to low GABA” value (α1β3γ2S GABAAR; 100 μM (+)-catharanthine, ~EC5 GABA, n = 6 oocytes) was 667 ± 111% and the “(+)-Catharanthine relative potentiation” value (α1β3γ2S GABAAR; α1β3γ2S vs α1β1γ2S, 100 μM) was 2.4. The ΔG [6, 8] was −0.19 ± 0.01 kcal/mol and −0.19±0.01nd kcal/mol, the “cCath (ratio of the affinities for the active and resting states)” value ([6]; pooled data, best-fit ± standard error of the fit) was 0.848±0.010nd and the EC50 ([6]; pooled data, Hill equation fit) was 15.8 ± 5.9 µM. For the same molecule, the nH ([6]; pooled data, Hill equation fit) was 1.30.
